Source: patent publication US11970474B2, “Substituted benzodiazoles and use thereof in therapy” (THOMAS HELLEDAYS STIFTELSE FÖR MEDICINSK FORSKNING, priority 2018, dated 2024)

biological target: OGG1 (Homo sapiens (Human), UniProt O15527); assay: In vitro OGG1 activity assay; type: biochemical; details: 800 pM OGG1 enzyme, 2 nM human APEX1, 10 nM 8-oxoA:C substrate
Experimental: Method 1: In Vitro OGG1 Activity Assay OGG1 activity is assayed by measuring the increase in fluorescence from a duplex oligonucleotide containing an OGG1 substrate and a fluorophore in close proximity that are quenched by a quencher on the complementary strand. […] OGG1 activity releases the substrate base from DNA by cleaving the N-glycosidic bond between base and deoxyribose. The resulting apurinic site is cleaved by an excessive amount APEX1 activity which cause the duplex to melt, which in turn cause the fluorophore to become unquenched. Compounds to be tested are dissolved in DMSO and nano-dispensed directly into black 384-well plates, followed by transfer of enzyme and substrate solutions. […] The fluorescent signal is recorded in a plate reader equipped with suitable filters to register fluorescein fluorescence.

Sequence of OGG1 (O15527 whole entry): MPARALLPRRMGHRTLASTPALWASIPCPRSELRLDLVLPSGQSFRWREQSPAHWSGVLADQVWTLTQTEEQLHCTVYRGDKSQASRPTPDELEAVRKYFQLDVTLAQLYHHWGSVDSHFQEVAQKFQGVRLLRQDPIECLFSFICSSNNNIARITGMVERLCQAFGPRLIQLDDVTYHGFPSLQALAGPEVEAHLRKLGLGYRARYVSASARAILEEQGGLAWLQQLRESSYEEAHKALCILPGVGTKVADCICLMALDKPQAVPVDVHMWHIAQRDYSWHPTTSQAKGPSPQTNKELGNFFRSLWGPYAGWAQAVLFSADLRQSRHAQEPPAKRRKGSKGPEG

Compound | IC50 [nM]
COc1ccc(NC(=O)N2CCC(n3c(=O)[nH]c4c(-c5cccnc5)cccc43)CC2)cc1Cl [Example 98, N-(3-chloro-4-methoxyphenyl)-4-[2-oxo-4-(pyridin-3-yl)-2,3-dihydro-1H-1,3-benzodiazol-1-yl]piperidine-1-carboxamide] | 2620
COc1ccc(NC(=O)N2CCC(n3c(=O)[nH]c4c(-c5ccc(N)nc5)cccc43)CC2)cc1Cl [Example 99, 4-[4-(6-Aminopyridin-3-yl)-2-oxo-2,3-dihydro-1H-1,3-benzodiazol-1-yl]-N-(3-chloro-4-methoxyphenyl)piperidine-1-carboxamide] | 1160
COc1ccc(NC(=O)N2CCC(n3c(=O)[nH]c4c(-c5cnc6[nH]ncc6c5)cccc43)CC2)cc1Cl [Example 101, N-(3-chloro-4-methoxyphenyl)-4-(2-oxo-4-{1H-pyrazolo[3,4-b]pyridin-5-yl}-2,3-dihydro-1H-1,3-benzodiazol-1-yl)piperidine-1-carboxamide] | 2260
COc1cc(NC(=O)N2CCC(n3c(=O)[nH]c4c(-c5cccnc5)cccc43)CC2)ccc1Cl [Example 102, N-(4-chloro-3-methoxyphenyl)-4-[2-oxo-4-(pyridin-3-yl)-2,3-dihydro-1H-1,3-benzodiazol-1-yl]piperidine-1-carboxamide] | 2770
COc1cc(NC(=O)N2CCC(n3c(=O)[nH]c4c(-c5cncc(N)c5)cccc43)CC2)ccc1Cl [Example 104, 4-[4-(5-Aminopyridin-3-yl)-2-oxo-2,3-dihydro-1H-1,3-benzodiazol-1-yl]-N-(4-chloro-3-methoxyphenyl)piperidine-1-carboxamide] | 2280
COc1ccc(-c2cccc3c2[nH]c(=O)n3C2CCN(C(=O)Nc3ccc(Cl)c(OC)c3)CC2)cn1 [Example 105, N-(4-chloro-3-methoxyphenyl)-4-[4-(6-methoxypyridin-3-yl)-2-oxo-2,3-dihydro-1H-1,3-benzodiazol-1-yl]piperidine-1-carboxamide] | 2940
COc1ccc(NC(=O)N2CCC(n3c(=O)[nH]c4c(N(C)CCN(C)C)cccc43)CC2)cc1Cl [Example 106, N-(3-chloro-4-methoxyphenyl)-4-(4-{[2-(dimethylamino)ethyl](methyl)amino}-2-oxo-2,3-dihydro-1H-1,3-benzodiazol-1-yl)piperidine-1-carboxamide] | 1750
COc1ccc(NC(=O)N2CCC(n3c(=O)[nH]c4c(N5Cc6cn[nH]c6C5)cccc43)CC2)cc1Cl [Example 108, N-(3-chloro-4-methoxyphenyl)-4-(2-oxo-4-{1H,4H,5H,6H-pyrrolo[3,4-c]pyrazol-5-yl}-2,3-dihydro-1H-1,3-benzodiazol-1-yl)piperidine-1-carboxamide] | 2530
O=C(Nc1cnc(Cl)c(Cl)c1)N1CCC(n2c(=O)[nH]c3c(Br)cccc32)CC1 [Example 109, 4-(4-Bromo-2-oxo-2,3-dihydro-1H-1,3-benzodiazol-1-yl)-N-(5,6-dichloropyridin-3-yl)piperidine-1-carboxamide] | 6460
Cc1nc(NC(=O)N2CCC(n3c(=O)[nH]c4c(Br)cccc43)CC2)ccc1Cl [Example 111, 4-(4-Bromo-2-oxo-2,3-dihydro-1H-1,3-benzodiazol-1-yl)-N-(5-chloro-6-methylpyridin-2-yl)piperidine-1-carboxamide] | 5810
CC1CN(C(=O)Nc2ccc(Cl)c(Cl)c2)CCC1n1c(=O)[nH]c2c(Br)cccc21 (stereo not drawn) [Example 113, 4-(4-Bromo-2-oxo-2,3-dihydro-1H-benzo[d]imidazol-1-yl)-N-(3,4-dichlorophenyl)-3-methylpiperidine-1-carboxamide] | 3200
COc1cc(NC(=O)N2CCC(n3c(=O)[nH]c4c(Cl)cccc43)CC2)ccc1C [Example 114, 4-(4-Chloro-2-oxo-2,3-dihydro-1H-1,3-benzodiazol-1-yl)-N-(3-methoxy-4-methylphenyl)piperidine-1-carboxamide] | 690
COc1cc(NC(=O)N2CCC(n3c(=O)[nH]c4c(C)cccc43)CC2)ccc1C [Example 115, N-(3-methoxy-4-methylphenyl)-4-(4-methyl-2-oxo-2,3-dihydro-1H-1,3-benzodiazol-1-yl)piperidine-1-carboxamide] | 1430
COc1cc(NC(=O)N2CCC(n3c(=O)[nH]c4c(OC)cccc43)CC2)ccc1C [Example 116, 4-(4-Methoxy-2-oxo-2,3-dihydro-1H-1,3-benzodiazol-1-yl)-N-(3-methoxy-4-methylphenyl)piperidine-1-carboxamide] | 2060
N#Cc1ccc(NC(=O)[C@H]2CC[C@@H](n3c(=O)[nH]c4c(Br)cccc43)CC2)cc1Cl [Example 125, (Cis)-4-(4-bromo-2-oxo-2,3-dihydro-1H-1,3-benzodiazol-1-yl)-N-(3-chloro-4-cyanophenyl)cyclohexane-1-carboxamide] | 3620

Results, then the compound that gave them:

IC50 [nM] | Compound
4940 | CC1CC(n2c(=O)[nH]c3c(Br)cccc32)CCN1C(=O)Nc1ccc(Cl)c(Cl)c1 (stereo not drawn) [Example 112, 4-(4-Bromo-2-oxo-2,3-dihydro-1H-benzo[d]imidazol-1-yl)-N-(3,4-dichlorophenyl)-2-methylpiperidine-1-carboxamide]
6830 | N#Cc1ccc(NC(=O)[C@H]2CC[C@@H](n3c(=O)[nH]c4c(Br)cccc43)CC2)cc1 [Example 132, (Cis)-4-(4-bromo-2-oxo-2,3-dihydro-1H-1,3-benzodiazol-1-yl)-N-(4-cyanophenyl)cyclohexane-1-carboxamide]
865 | O=c1[nH]c2c(Br)cccc2n1[C@H]1CC[C@@H](C(=O)Nc2ccc(C(F)(F)F)cc2)CC1 [Example 133, (Cis)-4-(4-bromo-2-oxo-2,3-dihydro-1H-1,3-benzodiazol-1-yl)-N-[4-(trifluoromethyl)phenyl]cyclohexane-1-carboxamide]
2740 | O=c1[nH]c2c(Br)cccc2n1[C@H]1CC[C@@H](C(=O)Nc2ccc(OC(F)(F)F)c(Cl)c2)CC1 [Example 134, (Cis)-4-(4-bromo-2-oxo-2,3-dihydro-1H-1,3-benzodiazol-1-yl)-N-[3-chloro-4-(trifluoromethoxy)phenyl]cyclohexane-1-carboxamide]
2030 | O=c1[nH]c2c(Br)cccc2n1[C@H]1CC[C@@H](C(=O)Nc2ccc(C(F)(F)F)c(F)c2)CC1 [Example 137, (Cis)-4-(4-bromo-2-oxo-2,3-dihydro-1H-1,3-benzodiazol-1-yl)-N-[3-fluoro-4-(trifluoromethyl)phenyl]cyclohexane-1-carboxamide]
2010 | O=c1[nH]c2c(Br)cccc2n1[C@H]1CC[C@@H](C(=O)Nc2cccc(Cl)c2)CC1 [Example 138, (Cis)-4-(4-bromo-2-oxo-2,3-dihydro-1H-1,3-benzodiazol-1-yl)-N-(3-chlorophenyl)cyclohexane-1-carboxamide]
5480 | O=c1[nH]c2c(Br)cccc2n1[C@H]1CC[C@@H](C(=O)Nc2cccc(C(F)(F)F)c2)CC1 [Example 141, (Cis)-4-(4-bromo-2-oxo-2,3-dihydro-1H-1,3-benzodiazol-1-yl)-N-[3-(trifluoromethyl)phenyl]cyclohexane-1-carboxamide]
1200 | Cc1cccc(NC(=O)[C@H]2CC[C@@H](n3c(=O)[nH]c4c(Br)cccc43)CC2)c1 [Example 143, (Cis)-4-(4-bromo-2-oxo-2,3-dihydro-1H-1,3-benzodiazol-1-yl)-N-(3-methylphenyl)cyclohexane-1-carboxamide]
983 | Cc1ccc(NC(=O)[C@H]2CC[C@@H](n3c(=O)[nH]c4c(Br)cccc43)CC2)cc1C(F)(F)F [Example 144, (Cis)-4-(4-bromo-2-oxo-2,3-dihydro-1H-1,3-benzodiazol-1-yl)-N-[4-methyl-3-(trifluoromethyl)phenyl]cyclohexane-1-carboxamide]
1080 | O=c1[nH]c2c(Br)cccc2n1[C@H]1CC[C@@H](C(=O)Nc2cccc3[nH]ccc23)CC1 [Example 145, (Cis)-4-(4-bromo-2-oxo-2,3-dihydro-1H-1,3-benzodiazol-1-yl)-N-(1H-indol-4-yl)cyclohexane-1-carboxamide]
1820 | COc1cc(F)cc(NC(=O)[C@H]2CC[C@@H](n3c(=O)[nH]c4c(Br)cccc43)CC2)c1 [Example 155, (Cis)-4-(4-bromo-2-oxo-2,3-dihydro-1H-1,3-benzodiazol-1-yl)-N-(3-fluoro-5-methoxyphenyl)cyclohexane-1-carboxamide]
173 | COc1ccc(NC(=O)[C@H]2CC[C@@H](n3c(=O)[nH]c4c(Br)cccc43)CC2)c(F)c1 [Example 156, (Cis)-4-(4-bromo-2-oxo-2,3-dihydro-1H-1,3-benzodiazol-1-yl)-N-(2-fluoro-4-methoxyphenyl)cyclohexane-1-carboxamide]
152 | N#Cc1cc(NC(=O)[C@H]2CC[C@@H](n3c(=O)[nH]c4c(Br)cccc43)CC2)ccc1Cl [Example 157, (Cis)-4-(4-bromo-2-oxo-2,3-dihydro-1H-1,3-benzodiazol-1-yl)-N-(4-chloro-3-cyanophenyl)cyclohexane-1-carboxamide]
6050 | COc1cc(NC(=O)[C@H]2CC[C@@H](n3c(=O)[nH]c4c(Br)cccc43)CC2)cc(C(F)(F)F)c1 [Example 158, (Cis)-4-(4-bromo-2-oxo-2,3-dihydro-1H-1,3-benzodiazol-1-yl)-N-[3-methoxy-5-(trifluoromethyl)phenyl]cyclohexane-1-carboxamide]
4940 | COc1cc(NC(=O)[C@H]2CC[C@@H](n3c(=O)[nH]c4c(Br)cccc43)CC2)ccc1C#N [Example 159, (Cis)-4-(4-bromo-2-oxo-2,3-dihydro-1H-1,3-benzodiazol-1-yl)-N-(4-cyano-3-methoxyphenyl)cyclohexane-1-carboxamide]
